From PMC6614494, “Molecular and Biochemical Characterization of a Bimodular Xylanase From Marinifilaceae Bacterium Strain SPP2” (Frontiers in Microbiology, 2019)

Biological target: T1, XynSPP2 (Labilibaculum antarcticum, UniProt A0A1Y1CHM8)
T1 construct: gene ALGA_1465; residues 25-450, signal peptide (24 residues) removed, Fn3 + GH10 domains; 34-residue N-terminal pET-28a tag kept; E. coli BL21(DE3)
Experiment: TLC of hydrolysis products
Assay type: biochemical
Settings: 20 uM substrate, citrate-phosphate pH 6.5

T1 sequence (A0A1Y1CHM8 entry or part of it): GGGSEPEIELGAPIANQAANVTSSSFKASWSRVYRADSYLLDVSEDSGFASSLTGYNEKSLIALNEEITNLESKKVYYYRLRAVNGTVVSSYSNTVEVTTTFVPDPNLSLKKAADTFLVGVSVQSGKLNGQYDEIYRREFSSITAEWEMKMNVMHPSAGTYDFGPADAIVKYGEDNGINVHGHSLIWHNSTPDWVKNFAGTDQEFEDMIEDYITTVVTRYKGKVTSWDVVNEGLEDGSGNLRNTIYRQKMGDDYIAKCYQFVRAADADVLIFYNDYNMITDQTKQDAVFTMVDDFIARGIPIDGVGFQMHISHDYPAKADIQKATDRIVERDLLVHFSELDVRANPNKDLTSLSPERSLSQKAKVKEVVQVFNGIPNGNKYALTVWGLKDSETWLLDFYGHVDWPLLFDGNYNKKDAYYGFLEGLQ

SMILES	TLC of hydrolysis products
OC1OC[C@@H](O[C@@H]2OC[C@@H](O[C@@H]3OC[C@@H](O[C@@H]4OC[C@@H](O)[C@H](O)[C@H]4O)[C@H](O)[C@H]3O)[C@H](O)[C@H]2O)[C@H](O)[C@H]1O (some centres unmarked) [X4, xylotetraose]	XynSPP2 hydrolyzed xylotetraose to xylotriose (major) and xylobiose
OC1OC[C@@H](O[C@@H]2OC[C@@H](O[C@@H]3OC[C@@H](O[C@@H]4OC[C@@H](O[C@@H]5OC[C@@H](O)[C@H](O)[C@H]5O)[C@H](O)[C@H]4O)[C@H](O)[C@H]3O)[C@H](O)[C@H]2O)[C@H](O)[C@H]1O (some centres unmarked) [X5, xylopentaose]	Degradations of xylopentaose and xylohexaose by XynSPP2 were largely similar
